According to patent publication US20180186742A1, “PICOLINAMIDES AS FUNGICIDES” (Dow AgroSciences LLC, priority 2017, published 2018):
Where two headings read alike, the source gives them in different places.

How the values were obtained:
Type in all cases: in vivo
Puccinia triticina = assay: Wheat brown rust (PUCCRT), disease control on wheat seedlings; settings: for pest or weed control at 121.5 g/ha: low volume application at 121.5 g/H; for pest or weed control at 100 ppm: high volume application at 100 ppm
In short: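 Compounds in acetone, diluted with nine volumes of water containing 110 ppm Triton X-100, sprayed to run-off on first-leaf Yuma wheat seedlings; track-spray tests used EC formulations with 0.1% Trycol 5941. Puccinia triticina spores applied before or after treatment. Overnight dark dew room at 22° C, 100% humidity, then greenhouse at 24° C.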

Zymoseptoria tritici = assay: Leaf blotch of wheat (SEPTTR), disease control on wheat seedlings; settings: for pest or weed control at 121.5 g/ha: low volume application at 121.5 g/H; for pest or weed control at 100 ppm: high volume application at 100 ppm
In short: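 Yuma wheat seedlings with the first leaf fully emerged were sprayed to run-off with compound in acetone plus nine volumes of water containing 110 ppm Triton X-100; track-spray tests used EC formulations with 0.1% Trycol 5941. Z. tritici inoculation came before or after treatment, followed by 100% RH dew periods and a 20 °C greenhouse. Percent control was calculated from severity versus untreated plants.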

Phakopsora pachyrhizi = assay: Asian soybean rust (PHAKPA), disease control on soybean seedlings; settings: High volume application at 25 ppm
Method: Technical grades of materials were dissolved in acetone, which were then mixed with nine volumes of water containing 0.011% Tween 20. The fungicide solutions were applied onto soybean seedlings using an automated booth sprayer to run-off. All sprayed plants were allowed to air dry prior to further handling.
Soybean plants (variety Williams 82) were grown in soil-less Metro mix, with one plant per pot. Two week old seedlings were used for testing. Plants were inoculated either 3 days prior to or 1 day after fungicide treatments. Plants were incubated for 24 h in a dark dew room at 22° C. and 100% relative humidity then transferred to a growth room at 23° C. for disease to develop. Disease severity was assessed on the sprayed leaves.

[1] = 24 h, 1 Day Protectant, read-out: PUCCRT disease control, 1DP, LV activity
[2] = 72 h, 3 Day Curative, read-out: PUCCRT disease control, 3DC, LV activity
[3] = 24 h, 1 Day Protectant, read-out: SEPTTR disease control, 1DP, LV activity
[4] = 72 h, 3 Day Curative, read-out: SEPTTR disease control, 3DC, LV activity
[5] = 24 h, 1 Day Protectant, read-out: PHAKPA 1DP disease control rating
[6] = 72 h, 3 Day Curative, read-out: PHAKPA 3DC disease control rating
[7] = 24 h, 1 Day Protectant, read-out: PUCCRT disease control, 1DP, HV activity
[8] = 72 h, 3 Day Curative, read-out: PUCCRT disease control, 3DC, HV activity
[9] = 24 h, 1 Day Protectant, read-out: SEPTTR disease control, 1DP, HV activity
[10] = 72 h, 3 Day Curative, read-out: SEPTTR disease control, 3DC, HV activity

Row | SMILES | pest or weed control at 121.5 g/ha (Puccinia triticina; [1]) | pest or weed control at 121.5 g/ha (Puccinia triticina; [2]) | pest or weed control at 121.5 g/ha (Zymoseptoria tritici; [3]) | pest or weed control at 121.5 g/ha (Zymoseptoria tritici; [4]) | pest or weed control at 25 ppm (Phakopsora pachyrhizi; [5]) | pest or weed control at 25 ppm (Phakopsora pachyrhizi; [6]) | pest or weed control at 100 ppm (Puccinia triticina; [7]) | pest or weed control at 100 ppm (Puccinia triticina; [8]) | pest or weed control at 100 ppm (Zymoseptoria tritici; [9]) | pest or weed control at 100 ppm (Zymoseptoria tritici; [10])
1 | COc1ccnc2c(=O)n([C@@H](C)C(=O)O[C@@H](C)[C@@H](c3ccc(C)cc3C)C(C)C)c(=O)oc12 [Compound 208] | < 80% | < 80% | < 0% | < 80% | < 80% | < 0% |  |  |  | 
2 | COc1ccnc2c(=O)n([C@@H](C)C(=O)O[C@@H](C)[C@@H](c3ccc(C)cc3C)C3CCCC3)c(=O)oc12 [Compound 209] | < 0% | < 0% | < 80% | < 80% | < 80% | < 0% |  |  |  | 
3 | COc1ccnc2c(=O)n([C@@H](C)C(=O)O[C@@H](C)[C@@H](c3ccc(C)cc3C)C3CCCCC3)c(=O)oc12 [Compound 210] | < 80% | < 0% | > 80% | < 80% | < 80% | < 80% |  |  |  | 
4 | COc1cc[n+]([O-])c(C(=O)N[C@@H](C)C(=O)O[C@@H](C)[C@@H](c2ccc(C)cc2C)C(C)C)c1O [Compound 211] | < 0% | < 0% | < 80% | < 0% | < 80% | < 0% | < 80% | < 0% | < 80% | < 80%
5 | COc1cc[n+]([O-])c(C(=O)N[C@@H](C)C(=O)O[C@@H](C)[C@@H](c2ccc(C)cc2C)C2CCCC2)c1O [Compound 212] | < 80% | < 0% | < 0% | < 0% | < 80% | < 80% | > 80% | < 80% | < 80% | > 80%
6 | CCC(C)[C@H](c1ccc(C)cc1C)[C@H](C)OC(=O)[C@H](C)NC(=O)c1c(O)c(OC)cc[n+]1[O-] (some centres unmarked) [Compound 213] | < 80% | < 0% | < 80% | < 80% | < 0% | < 0% |  |  |  | 
7 | COc1ccnc(C(=O)N[C@@H](C)C(=O)O[C@@H](C)[C@H](c2ccc(F)cc2)C(C)C)c1OC(C)=O [Compound 214] | > 80% | > 80% | > 80% | > 80% | > 80% | < 80% |  |  |  | 
8 | COc1ccnc(C(=O)N[C@@H](C)C(=O)O[C@@H](C)[C@H](c2ccc(F)cc2C)C(C)C)c1OCOC(C)=O [Compound 215] | > 80% | > 80% | > 80% | > 80% | > 80% | > 80% |  |  |  | 
9 | COc1cc(F)ccc1[C@@H](C(C)C)[C@H](C)OC(=O)[C@H](C)NC(=O)c1nccc(OC)c1OC(C)=O [Compound 221] | < 80% | < 80% | < 80% | > 80% | < 80% | < 80% |  |  |  | 
10 | CCC(CC)[C@H](c1ccc(F)cc1OC)[C@H](C)OC(=O)[C@H](C)NC(=O)c1nccc(OC)c1OC(C)=O [Compound 222] | > 80% | < 80% | > 80% | > 80% | > 80% | < 80% |  |  |  | 
11 | COc1cc(F)ccc1[C@@H](C1CCCCC1)[C@H](C)OC(=O)[C@H](C)NC(=O)c1nccc(OC)c1OC(C)=O [Compound 223] | < 80% | < 80% | > 80% | > 80% | < 80% | < 0% |  |  |  | 
12 | COc1cc(F)ccc1[C@@H](C1CCCC1)[C@H](C)OC(=O)[C@H](C)NC(=O)c1nccc(OC)c1OC(C)=O [Compound 224] | < 80% | < 80% | < 80% | < 0% | < 80% | < 0% |  |  |  | 
13 | CCC(C)[C@H](c1ccc(F)cc1OC)[C@H](C)OC(=O)[C@H](C)NC(=O)c1nccc(OC)c1OC(C)=O (some centres unmarked) [Compound 225] | > 80% | < 80% | > 80% | > 80% | > 80% | < 80% |  |  |  | 
14 | COc1cc(F)ccc1[C@@H](C1CCC1)[C@H](C)OC(=O)[C@H](C)NC(=O)c1nccc(OC)c1OC(C)=O [Compound 226] | < 80% | < 80% | < 80% | < 80% | < 80% | < 0% |  |  |  | 
15 | COc1cc(F)ccc1[C@H](C1CCCCC1)[C@H](C)OC(=O)[C@H](C)NC(=O)c1nccc(OC)c1OC(C)=O [Compound 227] | > 80% | > 80% | > 80% | > 80% | > 80% | < 80% |  |  |  | 
16 | COc1cc(F)ccc1[C@H](C1CCCC1)[C@H](C)OC(=O)[C@H](C)NC(=O)c1nccc(OC)c1OC(C)=O [Compound 228] | > 80% | < 80% | > 80% | < 80% | > 80% | < 80% |  |  |  | 
17 | CCC(CC)[C@@H](c1ccc(F)cc1OC)[C@H](C)OC(=O)[C@H](C)NC(=O)c1nccc(OC)c1OC(C)=O [Compound 229] | > 80% | < 80% | > 80% | > 80% | > 80% | < 80% |  |  |  | 
18 | CCC(C)[C@@H](c1ccc(F)cc1OC)[C@H](C)OC(=O)[C@H](C)NC(=O)c1nccc(OC)c1OC(C)=O (some centres unmarked) [Compound 230] | > 80% | > 80% | > 80% | < 80% | > 80% | < 80% |  |  |  | 
19 | COc1cc(F)ccc1[C@H](C1CCC1)[C@H](C)OC(=O)[C@H](C)NC(=O)c1nccc(OC)c1OC(C)=O [Compound 231] | < 80% | < 80% | < 80% | < 80% | > 80% | < 80% |  |  |  | 
20 | COc1cc(F)ccc1[C@H](C(C)C)[C@H](C)OC(=O)[C@H](C)NC(=O)c1nccc(OC)c1OC(C)=O [Compound 232] | > 80% | > 80% | > 80% | < 80% | > 80% | > 80% |  |  |  | 
21 | COc1cc(F)ccc1[C@@H](C1CCCCC1)[C@H](C)OC(=O)[C@H](C)NC(=O)c1nccc(OC)c1OCOC(C)=O [Compound 233] | < 80% | < 80% | > 80% | > 80% | < 80% | < 80% |  |  |  | 
22 | COc1cc(F)ccc1[C@@H](C1CCCC1)[C@H](C)OC(=O)[C@H](C)NC(=O)c1nccc(OC)c1OCOC(C)=O [Compound 234] | > 80% | < 80% | < 80% | < 80% | > 80% | < 0% |  |  |  | 
23 | COc1cc(F)ccc1[C@H](C1CCCC1)[C@H](C)OC(=O)[C@H](C)NC(=O)c1nccc(OC)c1OCOC(C)=O [Compound 235] | > 80% | < 80% | < 80% | < 80% | > 80% | < 80% |  |  |  | 
